According to ChEMBL document CHEMBL3400001, “Tricyclic 1,5-naphthyridinone oxabicyclooctane-linked novel bacterial topoisomerase inhibitors as broad-spectrum antibacterial agents-SAR of left-hand-side moiety (Part-2)” (Bioorg Med Chem Lett, 2015):
In brackets after ≈: the same amount, converted by molar mass. Activity calls are given as the source filed them. The calls are words filed in the database; no cut-off is given here.

Experiments:
Acinetobacter baumannii = assay: Antimicrobial activity against Acinetobacter baumannii IID876 by micro broth dilution or agar based method; type: functional
Staphylococcus aureus [1] = assay: Antimicrobial activity against Staphylococcus aureus Smith by micro broth dilution or agar based method; type: functional
Pseudomonas aeruginosa = assay: Antimicrobial activity against Pseudomonas aeruginosa PAO1 by micro broth dilution or agar based method; type: functional
Streptococcus pneumoniae = assay: Antimicrobial activity against Streptococcus pneumoniae IID554 by micro broth dilution or agar based method; type: functional
Enterococcus faecalis = assay: Antimicrobial activity against Enterococcus faecalis ATCC 29212 MB by micro broth dilution or agar based method; type: functional
Escherichia coli = assay: Antimicrobial activity against Escherichia coli ATCC 25922 by micro broth dilution or agar based method; type: functional
Enterococcus faecium = assay: Antimicrobial activity against vancomycin-resistant Enterococcus faecium A2373 expressing VanA by micro broth dilution or agar based method; type: functional
[2] = target: T1, Voltage-gated inwardly rectifying potassium channel KCNH2 (Homo sapiens, UniProt Q12809); assay: Inhibition of human ERG by MK499 binding assay
[3] = target: T1, Voltage-gated inwardly rectifying potassium channel KCNH2; assay: Inhibition of human ERG expressed in CHO cells by Patch express assay; type: cell-based
[4] = Volume of distribution at steady state in C57BL/6 mouse at 1 mg/kg, iv or 2 mg/kg, po; type: ADME, organism-based; details: in vivo, read-out: Vdss
[5] = Half life in C57BL/6 mouse at 1 mg/kg, iv or 2 mg/kg, po; type: ADME, organism-based; details: in vivo
[6] = AUC in C57BL/6 mouse at 1 mg/kg, iv; type: ADME, organism-based; design: dose 1 mg/kg, route intravenous; details: plasma
[7] = Oral bioavailability in C57BL/6 mouse at 2 mg/kg; type: ADME, organism-based; details: in vivo
Staphylococcus aureus [8] = assay: Antimicrobial activity against Staphylococcus aureus infected in orally dosed mouse model of bacteremia; type: functional; details: po
Moraxella catarrhalis = assay: Antimicrobial activity against Moraxella catarrhalis ATCC 25238 by micro broth dilution or agar based method; type: functional
Haemophilus influenzae = assay: Antimicrobial activity against Haemophilus influenzae ATCC 49247 by micro broth dilution or agar based method; type: functional
[9] = Plasma clearance in C57BL/6 mouse at 1 mg/kg, iv or 2 mg/kg, po; type: ADME, organism-based
Staphylococcus aureus [10] = assay: Antimicrobial activity against Staphylococcus aureus infected in intravenously dosed mouse model of bacteremia; type: functional; details: iv
Staphylococcus aureus [11] = assay: Antimicrobial activity against Staphylococcus aureus infected in mouse model of bacteremia at 50 mg/kg, po; type: functional, organism-based; design: dose 50 mg/kg
Staphylococcus aureus [12] = assay: Antimicrobial activity against Staphylococcus aureus infected in mouse model of bacteremia at 50 mg/kg, iv; type: functional, organism-based; design: dose 50 mg/kg
Staphylococcus aureus [13] = assay: Ratio of MIC for quinolone-resistant Staphylococcus aureus MS5935 to MIC for quinolone-[…]; type: functional
[14] = Acinetobacter baumannii, IID876, read-out: MIC
[15] = Staphylococcus aureus, Smith, read-out: MIC
[16] = Pseudomonas aeruginosa, PAO1, read-out: MIC
[17] = Streptococcus pneumoniae, IID554, read-out: MIC
[18] = Enterococcus faecalis, ATCC 29212 MB, read-out: MIC
[19] = Escherichia coli, ATCC 25922, read-out: MIC
[20] = Enterococcus faecium, A2373, read-out: MIC

T1 sequence (Q12809 whole entry): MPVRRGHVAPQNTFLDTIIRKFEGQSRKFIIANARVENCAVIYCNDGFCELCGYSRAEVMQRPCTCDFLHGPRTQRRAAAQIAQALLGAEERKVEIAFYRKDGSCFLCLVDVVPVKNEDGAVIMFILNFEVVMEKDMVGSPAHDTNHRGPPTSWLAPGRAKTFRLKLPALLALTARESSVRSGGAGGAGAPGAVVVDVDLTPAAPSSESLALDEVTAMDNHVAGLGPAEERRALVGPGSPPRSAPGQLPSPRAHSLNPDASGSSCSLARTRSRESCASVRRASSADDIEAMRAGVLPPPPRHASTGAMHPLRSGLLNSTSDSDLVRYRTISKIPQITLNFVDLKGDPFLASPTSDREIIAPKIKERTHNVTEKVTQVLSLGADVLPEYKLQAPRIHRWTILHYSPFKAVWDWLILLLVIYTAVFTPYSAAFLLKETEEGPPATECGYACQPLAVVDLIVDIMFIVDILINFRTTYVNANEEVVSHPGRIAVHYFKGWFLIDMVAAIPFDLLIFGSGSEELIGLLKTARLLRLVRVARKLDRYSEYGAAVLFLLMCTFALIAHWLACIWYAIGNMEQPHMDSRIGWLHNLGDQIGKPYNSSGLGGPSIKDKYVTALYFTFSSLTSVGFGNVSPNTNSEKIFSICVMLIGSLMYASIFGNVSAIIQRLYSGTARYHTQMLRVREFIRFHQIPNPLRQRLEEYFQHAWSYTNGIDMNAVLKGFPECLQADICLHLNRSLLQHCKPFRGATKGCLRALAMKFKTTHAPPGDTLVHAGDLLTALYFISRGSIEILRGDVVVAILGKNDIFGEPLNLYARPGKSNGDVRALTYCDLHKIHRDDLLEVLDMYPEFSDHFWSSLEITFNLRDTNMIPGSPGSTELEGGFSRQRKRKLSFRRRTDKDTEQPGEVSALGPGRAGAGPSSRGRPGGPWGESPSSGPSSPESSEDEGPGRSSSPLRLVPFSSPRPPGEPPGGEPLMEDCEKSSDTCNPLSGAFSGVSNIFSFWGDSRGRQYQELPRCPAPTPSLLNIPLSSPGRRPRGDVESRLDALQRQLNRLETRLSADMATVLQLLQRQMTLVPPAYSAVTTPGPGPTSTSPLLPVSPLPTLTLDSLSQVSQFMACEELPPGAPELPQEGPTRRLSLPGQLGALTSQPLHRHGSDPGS

COc1cnc2ccc(=O)n3c2c1[C@](O)(CC12CCC(NCc4ccc5c(n4)NC(=O)CO5)(CC1)CO2)C3
MIC (Acinetobacter baumannii; [14]): 32 µg/mL (≈ 61.6 µM) | MIC (Staphylococcus aureus [1]; [15]): 8 µg/mL (≈ 15.4 µM) | MIC (Pseudomonas aeruginosa; [16]): 32 µg/mL (≈ 61.6 µM) | MIC (Streptococcus pneumoniae; [17]): 8 µg/mL (≈ 15.4 µM) | MIC (Enterococcus faecalis; [18]): 32 µg/mL (≈ 61.6 µM) | MIC (Escherichia coli; [19]): 32 µg/mL (≈ 61.6 µM) | MIC (Enterococcus faecium; [20]): 32 µg/mL (≈ 61.6 µM)

O=C1COc2ccc(CNC34CCC(CC5Cn6c(=O)ccc7ncc(F)c5c76)(CC3)OC4)nc2N1 (stereo in doubt; 10)
MIC (Acinetobacter baumannii): 8 µg/mL (≈ 16.3 µM) | MIC (Staphylococcus aureus [1]): 0.5 µg/mL (≈ 1.02 µM) | MIC (Pseudomonas aeruginosa): 16 µg/mL (≈ 32.6 µM) | MIC (Streptococcus pneumoniae): 0.5 µg/mL (≈ 1.02 µM) | MIC (Enterococcus faecalis): 2 µg/mL (≈ 4.07 µM) | MIC (Escherichia coli): 2 µg/mL (≈ 4.07 µM) | IC50 [2]: 12.3 µM | MIC (Enterococcus faecium): 4 µg/mL (≈ 8.14 µM) | IC50 [3]: 21.6 µM

O=C1COc2ccc(CNC34CCC(C[C@]5(O)Cn6c(=O)ccc7ncc(F)c5c76)(CC3)OC4)nc2N1
MIC (Acinetobacter baumannii; [14]): 2 µg/mL (≈ 3.94 µM) | Vd [4]: 11.8 L/kg | MIC (Staphylococcus aureus [1]; [15]): 0.25 µg/mL (≈ 0.493 µM) | MIC (Pseudomonas aeruginosa; [16]): 16 µg/mL (≈ 31.5 µM) | MIC (Streptococcus pneumoniae; [17]): 0.25 µg/mL (≈ 0.493 µM) | MIC (Enterococcus faecalis; [18]): 4 µg/mL (≈ 7.88 µM) | half-life [5]: 4 h | AUC [6]: 0.45 µM·h | bioavailability [7]: 40% | MIC (Escherichia coli; [19]): 4 µg/mL (≈ 7.88 µM) | ED50 (Staphylococcus aureus [8]): 27 mg/kg | MIC (Moraxella catarrhalis): 0.25 µg/mL (≈ 0.493 µM) | MIC (Enterococcus faecium; [20]): 8 µg/mL (≈ 15.8 µM) | MIC (Haemophilus influenzae): 1 µg/mL (≈ 1.97 µM) | clearance [9]: 65 mL/min/kg | ED50 (Staphylococcus aureus [10]): < 3.2 mg/kg

COc1cnc2ccc(=O)n3c2c1[C@@](O)(CC12CCC(NCc4ccc5c(n4)NC(=O)CO5)(CC1)CO2)C3
MIC (Acinetobacter baumannii; [14]): 32 µg/mL (≈ 61.6 µM) | MIC (Staphylococcus aureus [1]; [15]): 8 µg/mL (≈ 15.4 µM) | MIC (Pseudomonas aeruginosa; [16]): 32 µg/mL (≈ 61.6 µM) | MIC (Streptococcus pneumoniae; [17]): 32 µg/mL (≈ 61.6 µM) | MIC (Enterococcus faecalis; [18]): 32 µg/mL (≈ 61.6 µM) | MIC (Escherichia coli; [19]): 32 µg/mL (≈ 61.6 µM) | MIC (Enterococcus faecium; [20]): 32 µg/mL (≈ 61.6 µM)

O=C1COc2ccc(CNC34CCC(C[C@@]5(O)Cn6c(=O)ccc7ncc(F)c5c76)(CC3)OC4)nc2N1
MIC (Acinetobacter baumannii; [14]): 32 µg/mL (≈ 63.1 µM) | MIC (Staphylococcus aureus [1]; [15]): 2 µg/mL (≈ 3.94 µM) | MIC (Pseudomonas aeruginosa; [16]): 32 µg/mL (≈ 63.1 µM) | MIC (Streptococcus pneumoniae; [17]): 4 µg/mL (≈ 7.88 µM) | MIC (Enterococcus faecalis; [18]): 8 µg/mL (≈ 15.8 µM) | MIC (Escherichia coli; [19]): 16 µg/mL (≈ 31.5 µM) | Activity (Staphylococcus aureus [11]): inactive | Activity (Staphylococcus aureus [12]): inactive | MIC (Enterococcus faecium; [20]): 32 µg/mL (≈ 63.1 µM)

O=C1COc2ccc(CNC34CCC(CC5(O)Cn6c(=O)c(Cl)cc7ncc(F)c5c76)(CC3)OC4)nc2N1 (racemic)
MIC (Acinetobacter baumannii; [14]): 16 µg/mL (≈ 29.5 µM) | MIC (Staphylococcus aureus [1]; [15]): 2 µg/mL (≈ 3.69 µM) | MIC (Pseudomonas aeruginosa; [16]): 32 µg/mL (≈ 59 µM) | MIC (Streptococcus pneumoniae; [17]): 2 µg/mL (≈ 3.69 µM) | MIC (Enterococcus faecalis; [18]): 8 µg/mL (≈ 14.8 µM) | MIC (Escherichia coli; [19]): 16 µg/mL (≈ 29.5 µM) | IC50 [2]: > 60 µM | Ratio (Staphylococcus aureus [13]): <4 | MIC (Moraxella catarrhalis): 2 µg/mL (≈ 3.69 µM) | MIC (Enterococcus faecium; [20]): 32 µg/mL (≈ 59 µM) | MIC (Haemophilus influenzae): 8 µg/mL (≈ 14.8 µM)

CO[C@@]1(CC23CCC(NCc4ccc5c(n4)NC(=O)CO5)(CC2)CO3)Cn2c(=O)ccc3ncc(F)c1c32
MIC (Acinetobacter baumannii; [14]): 16 µg/mL (≈ 30.7 µM) | MIC (Staphylococcus aureus [1]; [15]): 4 µg/mL (≈ 7.67 µM) | MIC (Pseudomonas aeruginosa; [16]): 32 µg/mL (≈ 61.4 µM) | MIC (Streptococcus pneumoniae; [17]): 2 µg/mL (≈ 3.83 µM) | MIC (Enterococcus faecalis; [18]): 8 µg/mL (≈ 15.3 µM) | MIC (Escherichia coli; [19]): 32 µg/mL (≈ 61.4 µM) | IC50 [2]: 7.3 µM | Ratio (Staphylococcus aureus [13]): <4 | MIC (Enterococcus faecium; [20]): 32 µg/mL (≈ 61.4 µM)

O=C1COc2ccc(CNC34CCC(CC5(F)Cn6c(=O)ccc7ncc(F)c5c76)(CC3)OC4)nc2N1 (racemic)
MIC (Acinetobacter baumannii; [14]): 1 µg/mL (≈ 1.96 µM) | MIC (Staphylococcus aureus [1]; [15]): 0.25 µg/mL (≈ 0.491 µM) | MIC (Pseudomonas aeruginosa; [16]): 32 µg/mL (≈ 62.8 µM) | MIC (Streptococcus pneumoniae; [17]): 0.5 µg/mL (≈ 0.981 µM) | MIC (Enterococcus faecalis; [18]): 2 µg/mL (≈ 3.93 µM) | MIC (Escherichia coli; [19]): 4 µg/mL (≈ 7.85 µM) | MIC (Enterococcus faecium; [20]): 4 µg/mL (≈ 7.85 µM)

O=C1COc2ccc(CNC34CCC(C[C@@]5(O)Cn6c(=O)c(F)cc7ncc(F)c5c76)(CC3)OC4)nc2N1
MIC (Acinetobacter baumannii; [14]): 32 µg/mL (≈ 60.9 µM) | MIC (Staphylococcus aureus [1]; [15]): 4 µg/mL (≈ 7.61 µM) | MIC (Pseudomonas aeruginosa; [16]): 32 µg/mL (≈ 60.9 µM) | MIC (Streptococcus pneumoniae; [17]): 4 µg/mL (≈ 7.61 µM) | MIC (Enterococcus faecalis; [18]): 16 µg/mL (≈ 30.4 µM) | MIC (Escherichia coli; [19]): 16 µg/mL (≈ 30.4 µM) | IC50 [2]: > 60 µM | Ratio (Staphylococcus aureus [13]): <4 | MIC (Moraxella catarrhalis): 1 µg/mL (≈ 1.9 µM) | MIC (Enterococcus faecium; [20]): 32 µg/mL (≈ 60.9 µM) | MIC (Haemophilus influenzae): 8 µg/mL (≈ 15.2 µM)

Cc1cc(=O)n2c3c(c(F)cnc13)[C@](O)(CC13CCC(NCc4ccc5c(n4)NC(=O)CO5)(CC1)CO3)C2
MIC (Acinetobacter baumannii; [14]): 0.5 µg/mL (≈ 0.959 µM) | MIC (Staphylococcus aureus [1]; [15]): 0.5 µg/mL (≈ 0.959 µM) | MIC (Pseudomonas aeruginosa; [16]): 32 µg/mL (≈ 61.4 µM) | MIC (Streptococcus pneumoniae; [17]): 1 µg/mL (≈ 1.92 µM) | MIC (Enterococcus faecalis; [18]): 4 µg/mL (≈ 7.67 µM) | MIC (Escherichia coli; [19]): 8 µg/mL (≈ 15.3 µM) | IC50 [2]: > 60 µM | Ratio (Staphylococcus aureus [13]): <4 | MIC (Moraxella catarrhalis): 0.5 µg/mL (≈ 0.959 µM) | MIC (Enterococcus faecium; [20]): 8 µg/mL (≈ 15.3 µM) | MIC (Haemophilus influenzae): 4 µg/mL (≈ 7.67 µM)

O=C1COc2ccc(CNC34CCC(CC5Cn6c(=O)ccc7ncc(F)c5c76)(CC3)OC4)nc2N1 (racemic)
MIC (Staphylococcus aureus [1]): 0.12 µg/mL (≈ 0.244 µM) | MIC (Pseudomonas aeruginosa): 8 µg/mL (≈ 16.3 µM) | MIC (Streptococcus pneumoniae; [17]): 0.25 µg/mL (≈ 0.509 µM) | MIC (Escherichia coli): 1 µg/mL (≈ 2.03 µM) | IC50 [2]: 23 µM | IC50 [3]: 30 µM

O=C1COc2ccc(CNC34CCC(CC5Cn6c(=O)ccc7ncc(F)c5c76)(CC3)OC4)nc2N1 (stereo in doubt; 9)
MIC (Acinetobacter baumannii): 0.5 µg/mL (≈ 1.02 µM) | MIC (Pseudomonas aeruginosa; [16]): 16 µg/mL (≈ 32.6 µM) | MIC (Streptococcus pneumoniae): 0.25 µg/mL (≈ 0.509 µM) | MIC (Enterococcus faecalis): 0.5 µg/mL (≈ 1.02 µM) | MIC (Escherichia coli; [19]): 1 µg/mL (≈ 2.03 µM) | IC50 [2]: 15.2 µM | Ratio (Staphylococcus aureus [13]): <4 | MIC (Enterococcus faecium): 1 µg/mL (≈ 2.03 µM) | IC50 [3]: 15.8 µM
